Assay results reported in patent US9371519B2, “Complex type sugar chain hydrolase” (National Institute of Advanced Industrial Science and …, priority 2011, dated 2016).

Experiments:
[1] = target: T1, Ogataea minuta endo-β-N-acetylglucosaminidase Endo-Om, wild type (recombinant, purified), SEQ ID NO: 1 (Ogataea minuta, UniProt R4WHQ8); assay: Km and Vmax for NGA2-Asn-Fmoc hydrolysis, purified Endo-Om (HPLC); format: biochemical
T1 sequence (R4WHQ8 1-772): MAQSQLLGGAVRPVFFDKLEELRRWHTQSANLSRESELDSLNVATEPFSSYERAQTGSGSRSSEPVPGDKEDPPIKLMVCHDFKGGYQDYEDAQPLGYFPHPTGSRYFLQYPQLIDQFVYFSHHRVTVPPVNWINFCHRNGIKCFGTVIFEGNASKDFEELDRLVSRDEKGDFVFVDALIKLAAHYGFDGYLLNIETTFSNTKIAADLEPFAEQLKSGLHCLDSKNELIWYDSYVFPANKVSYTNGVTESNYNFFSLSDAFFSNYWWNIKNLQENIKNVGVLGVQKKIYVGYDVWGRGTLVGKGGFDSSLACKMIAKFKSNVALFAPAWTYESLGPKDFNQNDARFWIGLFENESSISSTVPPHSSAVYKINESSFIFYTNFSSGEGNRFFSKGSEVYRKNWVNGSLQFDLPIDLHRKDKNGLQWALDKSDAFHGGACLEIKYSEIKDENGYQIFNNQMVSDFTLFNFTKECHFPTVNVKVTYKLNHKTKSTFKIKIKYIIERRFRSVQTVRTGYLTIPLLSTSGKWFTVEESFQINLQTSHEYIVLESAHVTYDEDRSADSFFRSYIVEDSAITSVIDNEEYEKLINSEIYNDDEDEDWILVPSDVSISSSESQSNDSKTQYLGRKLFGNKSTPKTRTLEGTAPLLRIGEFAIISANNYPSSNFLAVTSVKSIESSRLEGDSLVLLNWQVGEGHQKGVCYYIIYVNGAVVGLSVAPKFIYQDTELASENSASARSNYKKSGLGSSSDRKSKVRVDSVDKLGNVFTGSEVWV
Procedure: (§1) The enzyme activity was measured as follows. A reaction solution (total volume: 10 μl) containing 100 mM of a sodium acetate buffer (pH 5.3) at the final concentration, 0.5 M NaCl, 10 μM of a Fmoc-labeled biantennary complex type sugar chain (NGA2-Asn-Fmoc), and an Endo-Om crude enzyme solution was incubated at 50° C. for 1 hour, and heated at 95° C. for 5 minutes, thereby stopping the enzyme reaction. The reaction solution was subjected to HPLC, and the enzymatic activity was calculated from the peak area ratio between the NGA2-Asn-Fmoc as the substrate and its hydrolysate. The column was Asahipak NH2P-50 4E (4.6.250 mm, Shodex), and the solvents were acetonitrile (solvent A) and 200 mM of TEAA (pH 7.0, GLEN RESEARCH: solvent B). Isocratic elution was carried out at a flow rate of 1.0 ml/min, and the solvent B: 43%, and detection was carried out using a fluorescence detector (excitation wavelength 265 nm, and fluorescence wavelength 315 nm). The activity hydrolyzing 1 vol of NGA2-Asn-Fmoc in 1 minute under the above-described reaction conditions was defined as 1 Unit of the enzymatic activity of Endo-Om.
(§2) The properties of Endo-Om were studied using a purified enzyme solution. According to the method described in Example 4, the Endo-Om crude enzyme solution prepared from 100 ml culture was substituted with an equilibration buffer (20 mM sodium phosphate buffer (pH 7.4), 0.5 M NaCl, 0.5 mM PMSF, 50 mM imidazole) by dialysis. […] According to the method described in Example 4, the activity of the Endo-Om purified enzyme solution when the substrate concentration was 1 mM was measured, and the specific activity was calculated. In addition, activity measurement was carried out using NGA2-Asn-Fmoc at different concentrations as the substrates, and Km and Vmax were calculated. For comparison, the specific activity, Km, and Vmax of the commercially available Endo-M were calculated by the same method. […]

[2] = target: T2, Mucor hiemalis endo-β-N-acetylglucosaminidase Endo-M (commercially available) (Mucor hiemalis, UniProt Q9C1S6); assay: Km and Vmax for NGA2-Asn-Fmoc hydrolysis, commercially available Endo-M (HPLC); format: biochemical; conditions: sodium acetate pH 6.0, 0.5 M NaCl, 50° C.
T2 sequence (Q9C1S6 1-744): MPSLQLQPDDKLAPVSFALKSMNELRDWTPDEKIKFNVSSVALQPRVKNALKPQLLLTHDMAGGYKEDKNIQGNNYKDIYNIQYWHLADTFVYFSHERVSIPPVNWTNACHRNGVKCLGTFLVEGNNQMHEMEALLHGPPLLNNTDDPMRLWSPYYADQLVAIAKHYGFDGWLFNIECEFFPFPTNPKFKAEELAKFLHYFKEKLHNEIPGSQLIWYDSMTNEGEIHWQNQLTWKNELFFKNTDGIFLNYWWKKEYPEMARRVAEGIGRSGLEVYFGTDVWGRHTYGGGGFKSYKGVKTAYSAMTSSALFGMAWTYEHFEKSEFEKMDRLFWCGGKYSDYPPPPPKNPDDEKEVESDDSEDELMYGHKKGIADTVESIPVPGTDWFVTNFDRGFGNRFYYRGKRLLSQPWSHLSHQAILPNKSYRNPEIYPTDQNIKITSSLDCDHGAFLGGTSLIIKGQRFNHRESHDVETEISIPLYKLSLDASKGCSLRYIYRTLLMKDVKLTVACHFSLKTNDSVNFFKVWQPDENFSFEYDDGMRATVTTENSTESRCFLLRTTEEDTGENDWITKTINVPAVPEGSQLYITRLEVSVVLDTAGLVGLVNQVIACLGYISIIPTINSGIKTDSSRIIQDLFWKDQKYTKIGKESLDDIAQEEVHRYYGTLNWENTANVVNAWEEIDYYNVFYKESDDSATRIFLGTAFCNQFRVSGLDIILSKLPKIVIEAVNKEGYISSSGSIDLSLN
Procedure: as §1, with “The column was Asahipak NH2P-50 4E (4.6.250 mm, Shodex), and the solvents were acetonitrile (solvent A) and 200 mM of TEAA (pH 7.0, GLEN RESEARCH: solvent B).” left out, “The activity hydrolyzing 1 vol of NGA2-Asn-Fmoc in 1 minute under the above-described reaction conditions was defined as 1 Unit of the enzymatic activity of Endo-Om.” left out
as §2, with “solution.” for “solution. According to the method described in Example 4, the Endo-Om crude enzyme solution prepared from 100 ml culture was substituted with an equilibration buffer (20 mM sodium phosphate buffer (pH 7.4), 0.5 M NaCl, 0.5 mM PMSF, 50 mM imidazole) by dialysis.”

Km ([1]; Endo-Om, sodium acetate pH 5.3, 0.5 M NaCl, 50° C., NGA2-Asn-Fmoc at different concentrations): 5.54 mM
Vmax ([1]; Endo-Om, sodium acetate pH 5.3, 0.5 M NaCl, 50° C., unit as printed in b33 and b95): 3.88 µmol/min/mg
Vmax of Endo-Om relative to Vmax of Endo-M ([1]; ratio Endo-Om / Endo-M): 55 times
Vmax [2]: 0.070 µmol/min/mg
Compound: CC(=O)N[C@@H]1[C@@H](O)[C@H](O[C@@H]2O[C@H](CO)[C@@H](O[C@@H]3O[C@H](CO[C@H]4O[C@H](CO)[C@@H](O)[C@H](O)[C@@H]4O[C@@H]4O[C@H](CO)[C@@H](O)[C@H](O)[C@H]4NC(C)=O)[C@@H](O)[C@H](O[C@H]4O[C@H](CO)[C@@H](O)[C@H](O)[C@@H]4O[C@@H]4O[C@H](CO)[C@@H](O)[C@H](O)[C@H]4NC(C)=O)[C@@H]3O)[C@H](O)[C@H]2NC(C)=O)[C@@H](CO)O[C@H]1NC(=O)C[C@H](NC(=O)OCC1c2ccccc2-c2ccccc21)C(=O)O [NGA2-Asn-Fmoc]
